Four compounds from patent US5102888A, “Quinoline type mevalonolactones useful for treating hyperlipidemia and related diseases” (Nissan Chemical Industries Ltd., priority 1987, dated 1992) can be followed below.

The test has as its target cholesterol biosynthesis wherein HMG-CoA reductase acts as a rate limiting enzyme (rat liver microsome and sup fraction). Kind of test: Test A: Inhibition of Cholesterol Biosynthesis from Acetate In Vitro. It is filed as biochemical, male Wistar rat. The settings on record: for IC50: [2-14C]sodium acetate incorporation, rat liver microsome + sup fraction, 2 hours, 37° C., read-out: I50 (Inhibitory activities by Test A); for Relative activities by Test A: relative to activity of CS-514 evaluated to be 1. How it is done: Enzyme solution was prepared from liver of male Wistar rat billialy cannulated and discharged bile for over 24 hours. Liver was cut out at mid-dark and microsome and supernatant fraction which was precipitable with 40-80% of saturation of ammonium sulfate (sup fraction) were prepared from liver homogenate according to the modified method of Knauss et. al.; Kuroda, M., et. al., Biochim. Biophys. Acta, 489, 119 (1977). For assay of cholesterol biosynthesis, microsome (0.1 mg protein) and sup fraction (1.0 mg protein) were incubated for 2 hours at 37° C. in 200 μl of the reaction mixture containing ATP; 1 mM, Glutathione; 6 mM, Glucose-1-phosphate; 10 mM, NAD; 0.25 mM, NADP; 0.25 mM, CoA; 0.04 mM and 0.2 mM [2-^14 C]sodium acetate (0.2 μCi) with 4 μl of test compound solution dissolved in water or dimethyl sulfoxide. To stop reaction and saponify, 1 ml of 15% EtOH--KOH was added to the reactions and heated at 75° C. for 1 hour. […] Inhibitory activity of compounds was indicated with IC50.

SMILES strings stand for the structures. Where a name gives a salt, the structure may show the parent alone.

With `CCC(C)C(=O)OC1CC(O)C=C2C=CC(C)C(CCC(O)CC(O)CC(=O)O)C21` (stereo not shown) [CS-514, reference compound], the IC50 was 9 nM.
Regarding `CC(C)c1nc2ccccc2c(-c2ccc(F)cc2)c1/C=C/C(O)CC(O)CC(=O)O` (stereo not shown) [Compound I-51, Sodium salt of (E)-3,5-dihydroxy-7-[4'-(4"-fluorophenyl)-2'-(1"-methylethyl)-quinolin-3'-yl]-hept-6-enoic acid], the IC50 was 10 nM.
Consider `CC(C)c1nc2c(Cl)cc(Cl)cc2c(-c2ccc(F)cc2)c1/C=C/C(O)CC(O)CC(=O)O` (stereo not shown) [Compound I-522], for which the “Relative activities by Test A” value worked out at 0.76.
Take `CCOC(=O)CC(O)CC(O)/C=C/c1c(CC)nc2ccccc2c1-c1ccc(F)cc1` (stereo not shown) [Compound I-117]: the “Relative activities by Test A” value is 0.37.
